system: A549 NSCLC cells; test: Cellular cytotoxicity assay (Alamar Blue), A549; assay type: cell-based; conditions: Homo sapiens, 72 h, upper end given as ≧100, read-out: IC50 (μM), cytotoxicity towards A549 NSCLC cells
Experimental: The anti-proliferative activity of the histone deacetylase inhibitory compounds as described herein, is evaluated using the following cell lines: HeLa and HeLa-KB (cervical carcinoma), H460 (non small cell lung cancer), A549 (non-small cell lung cancer), MCF7 (breast carcinoma), MCF10A (normal, non tumorigenic breast epithelial), MDA-MB468 (breast carcinoma), MDA-MB435 (breast carcinoma), MDA-MB231 (breast carcinoma), SKBR-3 (breast carcinoma), SKOV-3 (ovarial carcinoma), A-2780 (ovarial carcinoma), RKO (colon carcinoma), HCT-15 (colon carcinoma), HCT-116 (colon carcinoma), PC3 (prostate carcinoma), BPH1 (benign prostate hyperplasia), AsPC1 (pancreatic carcinoma), Ca127 (tongue carcinoma), A-431 (vulva carcinoma), Hec1A (endometrial carcinoma), Saos-2 (osteosarcoma), U87MG (glioblastoma), WM266-4 (melanoma), K562 (chronic myeloid leukemia), EOL1 (acute hypereosinophilic myeloid leukemia), CCRF-CEM and CCRF-CEM VCR1000 (acute lymphoblastic leukemia sensitive and resistant towards Vincristine). For quantification of cellular proliferation/living cells the Alamar Blue (Resazurin) cell viability assay is applied (O'Brien et al. Eur J Biochem 267, 5421-5426, 2000). In this assay Resazurin is reduced to the fluorescent resorufine by cellular dehydrogenase activity, correlating with viable, proliferating cells. The examples are dissolved as 20 mM solutions in dimethylsulfoxide (DMSO) and subsequently diluted in semi-logarithmic steps. Cell lines are seeded at respective density into 96 well flat bottom plates in a volume of 200 μl per well. 24 h after seeding 1 μl each of the compound dilutions are added into each well of the 96 well plate. Each compound dilution is tested as quadruplicates. Wells containing untreated control cells are filled with 200 μl DMEM medium containing 0.5% v:v DMSO. The cells are then incubated with the compounds for 72 h at 37° C. in a humidified atmosphere containing 5% carbon dioxide. To determine the viability of the cells, 20 μl of a Resazurin solution (Sigma; 90 mg/l) are added. After 4 h incubation at 37° C. the fluorescence is measured at an extinction of λ=544 nm and an emission of λ=590 nm. For the calculation of the cell viability the emission value from untreated cells is set as 100% viability and the emission rates of treated cells are set in relation to the values of untreated cells. Viabilities are expressed as % values. The corresponding IC50 values of the compounds for cytotoxic activity are determined from the concentration-effect curves by means of non-linear regression.

**Q.** `COC(=O)c1ccc(NC(=O)N2CCc3nc(C(=O)Nc4ccccc4N)sc3C2)cc1` [Example 5, Methyl 4-[({2-[(2-aminophenyl)carbamoyl]-6,7-dihydro[1,3]thiazolo[5,4-c]pyridin-5(4H)-yl}carbonyl)amino]benzoate] was tested. Which IC50 did it give?
**A.** ≥ 0.2 µM

**Q.** Which IC50 does the source give for `Nc1ccccc1NC(=O)c1nc2c(s1)CN(C(=O)Nc1ccc(Oc3ccccc3)cc1)CC2` [Example 6, N^2-(2-aminophenyl)-N5-(4-phenoxyphenyl)-6,7-dihydro[1,3]thiazolo[5,4-c]pyridine-2,5(4H)-dicarboxamide] here?
**A.** ≥ 0.2 µM

**Q.** With `Nc1ccccc1NC(=O)c1nc2c(s1)CN(C(=O)Nc1ccccc1OC(F)(F)F)CC2` [Example 8, N^2-(2-aminophenyl)-N5-[2-(trifluoromethoxy)phenyl]-6,7-dihydro[1,3]thiazolo[5,4-c]pyridine-2,5(4H)-dicarboxamide] as the molecule, how does the IC50 read?
**A.** ≥ 0.2 µM

**Q.** With `Nc1ccccc1NC(=O)c1nc2c(s1)CN(C(=O)Nc1ccc(OC(F)(F)F)cc1)CC2` [Example 9, N^2-(2-aminophenyl)-N5-[4-(trifluoromethoxy)phenyl]-6,7-dihydro[1,3]thiazolo[5,4-c]pyridine-2,5(4H)-dicarboxamide] as the molecule, how does the IC50 read?
**A.** ≥ 0.2 µM

**Q.** How did the IC50 turn out when `Nc1ccccc1NC(=O)c1nc2c(s1)CN(C(=O)Nc1ccccc1OC(F)F)CC2` [Example 10, N^2-(2-aminophenyl)-N5-[2-(difluoromethoxy)phenyl]-6,7-dihydro[1,3]thiazolo[5,4-c]pyridine-2,5(4H)-dicarboxamide] was run?
**A.** ≥ 0.2 µM

**Q.** With `Nc1ccccc1NC(=O)c1nc2c(s1)CN(C(=O)Nc1ccc(OC(F)F)cc1)CC2` [Example 11, N^2-(2-aminophenyl)-N5-[4-(difluoromethoxy)phenyl]-6,7-dihydro[1,3]thiazolo[5,4-c]pyridine-2,5(4H)-dicarboxamide] as the molecule, how does the IC50 read?
**A.** ≥ 0.2 µM

**Q.** `CNC(=O)N1CCc2nc(C(=O)Nc3ccccc3N)sc2C1` [Example 17, N^2-(2-aminophenyl)-N^5-methyl-6,7-dihydro[1,3]thiazolo[5,4-c]pyridine-2,5(4H)-dicarboxamide] was tested. Which IC50 did it give?
**A.** ≥ 0.2 µM

**Q.** For `COCCN(C)C(=O)N1CCc2nc(C(=O)Nc3ccccc3N)sc2C1` [Example 20, N^2-(2-aminophenyl)-N^5-(2-methoxyethyl)-N^5-methyl-6,7-dihydro[1,3]thiazolo[5,4-c]pyridine-2,5 (41:1)-dicarboxamide], which IC50 is on record?
**A.** ≥ 0.2 µM

**Q.** `CCN(C(=O)N1CCc2nc(C(=O)Nc3ccccc3N)sc2C1)C(C)C` [Example 21, N^2-(2-aminophenyl)-N^5-ethyl-N^5-isopropyl-6,7-dihydro[1,3]thiazolo[5,4-c]-pyridine-2,5(4H)-dicarboxamide] was tested. Which IC50 did it give?
**A.** ≥ 0.2 µM

**Q.** How did the IC50 turn out when `CN(C)c1ccc(N(C)C(=O)N2CCc3nc(C(=O)Nc4ccccc4N)sc3C2)cc1` [Example 22, N^2-(2-aminophenyl)-N^5-[4-(dimethylamino)phenyl]-N^5-methyl-6,7-dihydro-[1,3]thiazolo[5,4-c]pyridine-2,5(4H)-dicarboxamide] was run?
**A.** ≥ 0.2 µM

**Q.** For `CN(C)c1cccc(N(C)C(=O)N2CCc3nc(C(=O)Nc4ccccc4N)sc3C2)c1` [Example 23, N^2-(2-aminophenyl)-N^5-[3-(dimethylamino)phenyl]-N^5-methyl-6,7-dihydro-[1,3]-thiazolo[5,4-c]pyridine-2,5(4H)-dicarboxamide], which IC50 is on record?
**A.** ≥ 0.2 µM

**Q.** With `COc1ccc(N(C)C(=O)N2CCc3nc(C(=O)Nc4ccccc4N)sc3C2)cc1OC` [Example 24, N^2-(2-aminophenyl)-N^5-(3,4-dimethoxyphenyl)-N^5-methyl-6,7-dihydro[1,3]-thiazolo[5,4-c]pyridine-2,5(4H)-dicarboxamide] as the molecule, how does the IC50 read?
**A.** ≥ 0.2 µM

**Q.** For `Nc1ccccc1NC(=O)c1nc2c(s1)CN(C(=O)Nc1ccc(N3CCOCC3)nc1)CC2` [Example 34, N^2-(2-aminophenyl)-N^5-(6-morpholin-4-ylpyridin-3-yl)-6,7-dihydro[1,3]thiazolo[5,4-c]pyridine-2,5(4H)-dicarboxamide], which IC50 is on record?
**A.** ≥ 0.2 µM

**Q.** Which IC50 does the source give for `Nc1ccccc1NC(=O)c1nc2c(s1)CN(C(=O)Nc1ccc(N3CCC3)nc1)CC2` [Example 35, N^2-(2-aminophenyl)-N^5-(6-azetidin-1-ylpyridin-3-yl)-6,7-dihydro[1,3]thiazolo[5,4-c]pyridine-2,5(4H)-dicarboxamide] here?
**A.** ≥ 0.2 µM

**Q.** How did the IC50 turn out when `COc1ccc(NC(=O)N2CCc3nc(C(=O)Nc4ccccc4N)sc3C2)cn1` [Example 38, N^2-(2-aminophenyl)-N^5-(6-methoxypyridin-3-yl)-6,7-dihydro[1,3]thiazolo[5,4-c]pyridine-2,5(4H)-dicarboxamide] was run?
**A.** ≥ 0.2 µM

**Q.** How did the IC50 turn out when `CCCCNC(=O)N1CCc2nc(C(=O)Nc3ccccc3N)sc2C1` [Example 40, N^2-(2-aminophenyl)-N^5-butyl-6,7-dihydro[1,3]thiazolo[5,4-c]pyridine-2,5(4H)-dicarboxamide] was run?
**A.** ≥ 0.2 µM

**Q.** How did the IC50 turn out when `Nc1ccccc1NC(=O)c1nc2c(s1)CN(C(=O)NC1CCC(c3cccnc3)CC1)CC2` (stereo not shown) [Example 41, N^2-(2-aminophenyl)-N^5-(4-pyridin-3-ylcyclohexyl)-6,7-dihydro[1,3]thiazolo[5,4-c]pyridine-2,5(4H)-dicarboxamide] was run?
**A.** ≥ 0.2 µM

**Q.** Which IC50 does the source give for `Nc1ccccc1NC(=O)c1nc2c(s1)CN(C(=O)NC1CCNCC1)CC2` [Example 42, N^2-(2-aminophenyl)-N^5-piperidin-4-yl-6,7-dihydro[1,3]thiazolo[5,4-c]pyridine-2,5(4H)-dicarboxamide] here?
**A.** ≥ 0.2 µM

**Q.** With `COc1ccc(NC(=O)N2CCc3nc(C(=O)Nc4cc(OC)ccc4N)sc3C2)cc1` [Example 43, N^2-(2-amino-5-methoxyphenyl)-N^5-(4-methoxyphenyl)-6,7-dihydro[1,3]thiazolo[5,4-c]pyridine-2,5(4H)-dicarboxamide] as the molecule, how does the IC50 read?
**A.** ≥ 0.2 µM

**Q.** Which IC50 does the source give for `Nc1ccccc1NC(=O)c1nc2c(s1)CN(C(=O)NC1CCC(c3ccncc3)CC1)CC2` (stereo not shown) [Example 44, N^2-(2-aminophenyl)-N^5-(4-pyridin-4-ylcyclohexyl)-6,7-dihydro[1,3]thiazolo[5,4-c]pyridine-2,5(4H)-dicarboxamide] here?
**A.** ≥ 0.2 µM

**Q.** How did the IC50 turn out when `COc1ccc(NC(=O)N2CCc3nc(C(=O)Nc4cc(C(C)C)ccc4N)sc3C2)cc1` [Example 45, N^2-(2-amino-5-isopropylphenyl)-N^5-(4-methoxyphenyl)-6,7-dihydro[1,3]thiazolo[5,4-c]pyridine-2,5(4H)-dicarboxamide] was run?
**A.** ≥ 0.2 µM

**Q.** Which IC50 does the source give for `COc1ccc(N)c(NC(=O)c2nc3c(s2)CN(C(=O)Nc2cccc4cnccc24)CC3)c1` [Example 46, N^2-(2-amino-5-methoxyphenyl)-N^5-isoquinolin-5-yl-6,7-dihydro[1,3]thiazolo[5,4-c]pyridine-2,5(4H)-dicarboxamide] here?
**A.** ≥ 0.2 µM

**Q.** For `COc1ccc(N)c(NC(=O)c2nc3c(s2)CN(C(=O)Nc2ccc(N(C)C)cc2)CC3)c1` [Example 47, N^2-(2-amino-5-methoxyphenyl)-N^5-[4-(dimethylamino)phenyl]-6,7-dihydro-[1,3]thiazolo[5,4-c]pyridine-2,5(4H)-dicarboxamide], which IC50 is on record?
**A.** ≥ 0.2 µM

**Q.** With `COc1ccc(NC(=O)N2CCc3nc(C(=O)Nc4cc(C(C)C)ccc4N)sc3C2)cc1OC` [Example 48, N^2-(2-amino-5-isopropylphenyl)-N^5-(3,4-dimethoxyphenyl)-6,7-dihydro[1,3]thiazolo[5,4-c]pyridine-2,5(4H)-dicarboxamide] as the molecule, how does the IC50 read?
**A.** ≥ 0.2 µM

**Q.** With `CC(C)c1ccc(N)c(NC(=O)c2nc3c(s2)CN(C(=O)Nc2cccc4cnccc24)CC3)c1` [Example 49, N^2-(2-amino-5-isopropylphenyl)-N^5-isoquinolin-5-yl-6,7-dihydro[1,3]thiazolo[5,4-c]pyridine-2,5(4H)-dicarboxamide] as the molecule, how does the IC50 read?
**A.** ≥ 0.2 µM

**Q.** `CC(C)c1ccc(N)c(NC(=O)c2nc3c(s2)CN(C(=O)Nc2ccc(N(C)C)cc2)CC3)c1` [Example 50, N^2-(2-amino-5-isopropylphenyl)-N^5-[4-(dimethylamino)phenyl]-6,7-dihydro[1,3]thiazolo[5,4-c]pyridine-2,5(4H)-dicarboxamide] was tested. Which IC50 did it give?
**A.** ≥ 0.2 µM

**Q.** `COc1ccc(N)c(NC(=O)c2nc3c(s2)CN(C(=O)Nc2ccc(F)cc2)CC3)c1` [Example 51, N^2-(2-amino-5-methoxyphenyl)-N^5-(4-fluorophenyl)-6,7-dihydro[1,3]thiazolo[5,4-c]pyridine-2,5(4H)-dicarboxamide] was tested. Which IC50 did it give?
**A.** ≥ 0.2 µM

**Q.** How did the IC50 turn out when `CC(C)c1ccc(N)c(NC(=O)c2nc3c(s2)CN(C(=O)Nc2ccc(F)cc2)CC3)c1` [Example 52, N^2-(2-amino-5-isopropylphenyl)-N^5-(4-fluorophenyl)-6,7-dihydro[1,3]thiazolo[5,4-c]pyridine-2,5(4H)-dicarboxamide] was run?
**A.** ≥ 0.2 µM

Reference: patent publication US8440830B2, “Tetrahydro-fused pyridines as histone deacetylase inhibitors” (4SC AG, priority 2007, dated 2013)
